Results reported in ChEMBL document CHEMBL5727717, “ABHD6 and dual ABHD6/MGL inhibitors and their uses” (2020).

Columns and labels:
[1] = Fluorescent Assay: hABHD6:Initial Fluorescent Inhibition Assay (3-Point)—In each well of a 96-well plate 8 μL of membrane fraction containing full-length hABHD6 (1 μg total protein) was mixed with 168 μL of assay buffer (50 mM Tris-HCl, pH 7.6), and 20 μL of diluted compound (diluted in a dilution buffer consisting of 50% DMSO/50% assay buffer v/v). Each plate was incubated at RT for 15 minutes before adding 4 μL of 1 mM AHMMCE substrate (final concentration of 20 μM AHMMCE and final volume of 200 μL). The reaction was allowed to proceed for 1 hr at RT before the fluorescence was read at λex 360 nm and λem 460 nm and the inhibition calculated. Each experiment can test 8 compounds at three concentrations (usually 10 μM, 1 μM, and 100 nM).
Monoglyceride lipase = biological target: T1, Monoglyceride lipase (Homo sapiens, UniProt Q99685); assay: This medium throughput assay involved a 96-well plate format in which hMGL activity was monitored by the hydrolysis of the substrate 7-hydroxy-6-methoxy-4-methylcoumarin ester (AHMMCE) to form the fluorescent product, coumarin. […] Upon the addition of AHMMCE, the reaction was incubated at 25° C. for 120 min; fluorescence readings were taken every 15 min at 360 nm/460 nm (λexcitation/λemission) using a Synergy HT Plate Reader (Bio-Tek, Winooski, Vt.). […] External standards were used to convert relative fluorescence units to the amount of 4-methylcoumarin formed.
T1 sequence (Q99685 whole entry): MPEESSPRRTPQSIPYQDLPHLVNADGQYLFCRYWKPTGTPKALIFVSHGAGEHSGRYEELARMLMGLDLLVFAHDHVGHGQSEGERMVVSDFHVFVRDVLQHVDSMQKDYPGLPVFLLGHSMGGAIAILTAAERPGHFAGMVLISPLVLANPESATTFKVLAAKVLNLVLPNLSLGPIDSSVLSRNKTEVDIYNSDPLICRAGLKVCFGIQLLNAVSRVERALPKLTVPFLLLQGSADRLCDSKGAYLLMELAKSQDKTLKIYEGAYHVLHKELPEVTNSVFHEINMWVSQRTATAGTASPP

Compound | IC50 [1] [nM] | IC50 (Monoglyceride lipase) [nM]
O=C(OC(C(F)(F)F)C(F)(F)F)N1CCC2(CC(OC(c3ccc(F)cc3)c3ccc(F)cc3)C2)C1 (configuration not stated) | > 1000 | –
O=C(OC(C(F)(F)F)C(F)(F)F)N1Cc2ccc(N3CCS(=O)(=O)CC3)cc2C1 | – | > 1000
